Test results reported in patent EP1490333B1, “NEW ATORVASTATIN SALTS AND PHARMACEUTICAL COMPOSITIONS CONTAINING THEM” (Richter Gedeon Nyrt., priority 2002, dated 2003).
Where a name gives a salt, the structure may show the parent alone.

What was measured:
[1] = test system: Caco-2 human epithelial cells; conditions: for absorption of atorvastatin: microtablets of the three basic salts placed on the mono layers, compared with each other, Figure 1
Protocol: The essence of the method is, that microtablets are pressed from the drug substances to be examined without adding auxiliaries. The microtablets are made under the same conditions with the same pressing force, therefor the rate of penetration through cell-layer is determined by the intrinsic features of the examined substances.
In the model the absorption of atorvastatin through human epithelial (Caco-2) mono cell-layer was measured in such a way, that the microtablets prepared from the test compounds were placed on the mono cell-layers in the vessels containing physiological saline, then the time dependent amount of the test substance, which passed through the mono cell-layer was determined from the saline solution of the other side of the mono cell-layer by chromatography.
During the experiments 4 µmol base equivalent amounts were placed on the mono cell-layers from the microtablets.
During the experiments the reference compounds were placed on the mono cell-layer (luminal side, which in vivo equals the inner side of the intestine) in solution, the amount of the test substance, which passed through the mono cell-layer (abluminal side, which in vivo equals the blood circulation) was determined by chromatography, then the absorption coefficient characteristic for the absorption of the compounds was calculated (the English abbreviation used in the literature: Papp value).
At the end of the absorption experiments the intactness of the epithelial mono cell-layers was microscopically checked after tainting with toluidine blue. The amount of the test and reference compounds in the samples was determined by HPLC.

[2] = Specific surface of the salts; assay type: physicochemical
[3] = in vivo; cited from earlier work

SMILES: CC(C)c1c(C(=O)Nc2ccccc2)c(-c2ccccc2)c(-c2ccc(F)cc2)n1CCC(O)CC(O)CC(=O)O.N=C(N)NCCCC(N)C(=O)O [L-arginine salt, Atorvastatin L-arginine salt]
- absorption of atorvastatin [1]: no difference

SMILES: CC(C)c1c(C(=O)Nc2ccccc2)c(-c2ccccc2)c(-c2ccc(F)cc2)n1CC[C@@H](O)C[C@@H](O)CC(=O)O.NCCCC[C@H](N)C(=O)O [atorvastatin L-lysine salt]
- specific surface [2]: 1.1 m^2/g
- absorption (penetration) of atorvastatin in Caco-2 model ([1]; compared with polymorph I (crystal form I) of hemi-calcium salt): significantly better
- absorption of atorvastatin [1]: no difference
- appearance of atorvastatin on the abluminal side of the mono cell-layers ([1]; microtablets, compared with microtablets of polymorph I of hemi-calcium salt, Figure 2): significantly faster

SMILES: CC(C)c1c(C(=O)Nc2ccccc2)c(-c2ccccc2)c(-c2ccc(F)cc2)n1CC[C@@H](O)C[C@@H](O)CC(=O)O [atorvastatin hemi-calcium salt, reference compound]
- specific surface [2]: 8.0 m^2/g

SMILES: CC(C)c1c(C(=O)Nc2ccccc2)c(-c2ccccc2)c(-c2ccc(F)cc2)n1CC[C@@H](O)C[C@@H](O)CC(=O)O [atorvastatin hemi-calcium salt, (3R,5R)-7-[3-phenyl-4-[(phenylamino)carbonyl]-2-(4-fluorophenyl)-5-(1-methyl-ethyl)-pyrrol-1-yl]-3,5-dihydroxy-heptanoic acid]
- part of the applied dose absorbed [3]: about 30%
